US20230278972A1, “SUBSTITUTED HALOALKYL SULFONANILIDE HERBICIDES” (FMC Corporation, priority 2020, published 2023)

Experiments:
Format in all cases: in vivo
[1] = test system: pigweed (Amaranthus retroflexus); experiment: Test A postemergence, pigweed; conditions: Postemergence; for Pigweed plant response rating: 500 g ai/ha, visual injury vs untreated controls after approx. 10 days
Outline: (§1)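 Formulated with a surfactant in a non-phytotoxic solvent, compounds are applied to loam–sand pots, either to bare soil immediately after seeding (preemergence) or to seedlings of 2 to 10 cm bearing one to two leaves (postemergence).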

[2] = test system: Ryegrass, Italian (Italian ryegrass, Lolium multiflorum); experiment: Test A postemergence, Ryegrass, Italian; conditions: Postemergence; for Ryegrass, Italian plant response rating: 500 g ai/ha, visual injury vs untreated controls after approx. 10 days
Outline: as §1

[3] = test system: corn (Zea mays); experiment: Test A postemergence, corn; conditions: Postemergence; for Corn plant response rating: 500 g ai/ha, visual injury vs untreated controls after approx. 10 days
Outline: as §1

[4] = test system: blackgrass (Alopecurus myosuroides); experiment: Test A postemergence, blackgrass; conditions: Postemergence; for Blackgrass plant response rating: 500 g ai/ha, visual injury vs untreated controls after approx. 10 days
Outline: as §1

[5] = test system: barnyardgrass (Echinochloa crus-galli); experiment: Test A postemergence, barnyardgrass; conditions: Postemergence; for Barnyardgrass plant response rating: 500 g ai/ha, visual injury vs untreated controls after approx. 10 days
Outline: (§2)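 Compounds in non-phytotoxic solvent with surfactant. Soil: loam/sand. Preemergence via directed soil spray after seeding; postemergence on seedlings 2–10 cm, one- to two-leaf.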

[6] = test system: barnyardgrass (Echinochloa crus-galli); experiment: Test A preemergence, barnyardgrass; conditions: Preemergence; for Barnyardgrass plant response rating: 125 g ai/ha, visual injury on 0 to 100 scale (0 no effect, 100 complete control), approximately 10 days; for Plant response rating, Barnyardgrass: 0 to 100 scale (0 no effect, 100 complete control)
Outline: as §1

[7] = test system: kochia (Bassia scoparia); experiment: Test A postemergence, kochia; conditions: Postemergence; for Kochia plant response rating: 500 g ai/ha, visual injury vs untreated controls after approx. 10 days
Outline: as §1

[8] = test system: pigweed (Amaranthus retroflexus); experiment: Test A preemergence, pigweed; conditions: for Pigweed plant response rating: 125 g ai/ha, visual injury on 0 to 100 scale (0 no effect, 100 complete control), approximately 10 days; for Plant response rating, Pigweed: 0 to 100 scale (0 no effect, 100 complete control)
Outline: as §2

[9] = test system: ragweed (common ragweed, Ambrosia artemisiifolia); experiment: Test A preemergence, ragweed; conditions: Preemergence; for Ragweed plant response rating: 125 g ai/ha, visual injury on 0 to 100 scale (0 no effect, 100 complete control), approximately 10 days; for Plant response rating, Ragweed: 0 to 100 scale (0 no effect, 100 complete control)
Outline: as §1

[10] = test system: Foxtail, Giant (giant foxtail, Setaria faberi); experiment: Test A postemergence, Foxtail, Giant; conditions: Postemergence; for Foxtail, Giant plant response rating: 500 g ai/ha, visual injury vs untreated controls after approx. 10 days
Outline: as §1

[11] = test system: galium (catchweed bedstraw, Galium aparine); experiment: Test A postemergence, galium; conditions: Postemergence; for Galium plant response rating: 500 g ai/ha, visual injury vs untreated controls after approx. 10 days
Outline: as §2

[12] = test system: kochia (Bassia scoparia); experiment: Test A preemergence, kochia; conditions: Preemergence; for Kochia plant response rating: 125 g ai/ha, visual injury on 0 to 100 scale (0 no effect, 100 complete control), approximately 10 days; for Plant response rating, Kochia: 0 to 100 scale (0 no effect, 100 complete control)
Outline: as §1

[13] = test system: wheat (Triticum aestivum); experiment: Test A postemergence, wheat; conditions: Postemergence; for Wheat plant response rating: 500 g ai/ha, visual injury vs untreated controls after approx. 10 days
Outline: as §2

[14] = test system: ragweed (common ragweed, Ambrosia artemisiifolia); experiment: Test A postemergence, ragweed; conditions: Postemergence; for Ragweed plant response rating: 500 g ai/ha, visual injury vs untreated controls after approx. 10 days
Outline: as §1

[15] = test system: Foxtail, Giant (giant foxtail, Setaria faberi); experiment: Test A preemergence, Foxtail, Giant; conditions: Preemergence; for Foxtail, Giant plant response rating: 125 g ai/ha, visual injury on 0 to 100 scale (0 no effect, 100 complete control), approximately 10 days; for Plant response rating, Foxtail, Giant: 0 to 100 scale (0 no effect, 100 complete control)
Outline: as §1

[16] = test system: Ryegrass, Italian (Italian ryegrass, Lolium multiflorum); experiment: Test A preemergence, Ryegrass, Italian; conditions: Preemergence; for Ryegrass, Italian plant response rating: 125 g ai/ha, visual injury on 0 to 100 scale (0 no effect, 100 complete control), approximately 10 days; for Plant response rating, Ryegrass, Italian: 0 to 100 scale (0 no effect, 100 complete control)
Outline: as §1

[17] = 125 g ai/ha, visual injury approx. 10 days, 0 to 100 scale (0 no effect, 100 complete control)
[18] = 0 to 100 scale (0 no effect, 100 complete control)
[19] = 31 g ai/ha, visual injury on 0 to 100 scale (0 no effect, 100 complete control), approx. 10 days
[20] = 125 g ai/ha, 0 to 100 scale (0 no effect, 100 complete control)
[21] = 31 g ai/ha, visual injury, approx. 10 days

Cc1cc(C)c(C2=NOC3CCCCC23)cc1NS(=O)(=O)C(F)(F)F (racemic) [Compound 125]
Plant response rating, Pigweed [1, 17]: 60
Pigweed plant response rating [1, 18]: 90
Plant response rating, Ryegrass, Italian [2, 17]: 0
Ryegrass, Italian plant response rating [2, 18]: 70
Plant response rating, Corn [3, 17]: 0
Corn plant response rating [3, 18]: 60
Plant response rating, Blackgrass [4, 17]: 10
Blackgrass plant response rating [4, 18]: 60
Plant response rating, Barnyardgrass [5, 17]: 80
Barnyardgrass plant response rating [5, 18]: 90
Barnyardgrass plant response rating [6]: 100
Plant response rating, Barnyardgrass ([6]; 500 g ai/ha): 100
Plant response rating, Kochia [7, 17]: 70
Kochia plant response rating [7, 18]: 80
Pigweed plant response rating [8]: 100
Plant response rating, Pigweed ([8]; 500 g ai/ha): 100
Ragweed plant response rating [9]: 60
Plant response rating, Ragweed ([9]; 500 g ai/ha): 80
Plant response rating, Foxtail, Giant [10, 17]: 20
Foxtail, Giant plant response rating [10, 18]: 50
Plant response rating, Galium [11, 17]: 90
Galium plant response rating [11, 18]: 90
Kochia plant response rating [12]: 90
Plant response rating, Kochia ([12]; 500 g ai/ha): 100
Plant response rating, Wheat [13, 17]: 30
Wheat plant response rating [13, 18]: 70
Plant response rating, Ragweed [14, 17]: 60
Ragweed plant response rating [14, 18]: 80
Foxtail, Giant plant response rating [15]: 100
Plant response rating, Foxtail, Giant ([15]; 500 g ai/ha): 100
Ryegrass, Italian plant response rating [16]: 100
Plant response rating, Ryegrass, Italian ([16]; 500 g ai/ha): 100

CC(=O)OCN(c1cc(C2=NO[C@@H]3CCC[C@H]23)c(C)cc1C)S(=O)(=O)C(F)(F)F (relative stereo) [Compound 102]
Plant response rating, Pigweed [1, 17]: 70
Pigweed plant response rating [1, 18]: 80
Plant response rating, Ryegrass, Italian [2, 17]: 80
Ryegrass, Italian plant response rating [2, 18]: 90
Plant response rating, Corn [3, 17]: 10
Corn plant response rating [3, 18]: 30
Plant response rating, Blackgrass [4, 17]: 0
Blackgrass plant response rating [4, 18]: 0
Plant response rating, Barnyardgrass [5, 17]: 90
Barnyardgrass plant response rating [5, 18]: 90
Barnyardgrass plant response rating [6]: 80
Plant response rating, Barnyardgrass ([6]; 500 g ai/ha): 100
Plant response rating, Kochia [7, 17]: 70
Kochia plant response rating [7, 18]: 90
Pigweed plant response rating [8]: 100
Plant response rating, Pigweed ([8]; 500 g ai/ha): 100
Ragweed plant response rating [9]: 20
Plant response rating, Ragweed ([9]; 500 g ai/ha): 70
Plant response rating, Foxtail, Giant [10, 17]: 30
Foxtail, Giant plant response rating [10, 18]: 70
Plant response rating, Galium [11, 17]: 100
Galium plant response rating [11, 18]: 100
Kochia plant response rating [12]: 70
Plant response rating, Kochia ([12]; 500 g ai/ha): 90
Plant response rating, Wheat [13, 17]: 40
Wheat plant response rating [13, 18]: 80
Plant response rating, Ragweed [14, 17]: 70
Ragweed plant response rating [14, 18]: 90
Foxtail, Giant plant response rating [15]: 80
Plant response rating, Foxtail, Giant ([15]; 500 g ai/ha): 90
Ryegrass, Italian plant response rating [16]: 90
Plant response rating, Ryegrass, Italian ([16]; 500 g ai/ha): 90

Cc1cc(C)c(C2=NOC3(C2)CC(C)CC(C)C3)cc1NS(=O)(=O)C(F)(F)F (single isomer, unassigned) [Compound 167]
Plant response rating, Pigweed [1, 19]: 20
Plant response rating, Pigweed [1, 20]: 70
Plant response rating, Ryegrass, Italian [2, 19]: 0
Plant response rating, Ryegrass, Italian [2, 20]: 20
Plant response rating, Corn [3, 19]: 0
Plant response rating, Corn [3, 20]: 10
Plant response rating, Blackgrass [4, 19]: 0
Plant response rating, Blackgrass [4, 20]: 20
Plant response rating, Barnyardgrass [5, 19]: 10
Plant response rating, Barnyardgrass [5, 20]: 60
Plant response rating, Barnyardgrass [6, 21]: 0
Barnyardgrass plant response rating [6]: 20
Plant response rating, Kochia [7, 19]: 10
Plant response rating, Kochia [7, 20]: 40
Plant response rating, Pigweed [8, 21]: 0
Pigweed plant response rating [8]: 20
Plant response rating, Ragweed [9, 21]: 0
Ragweed plant response rating [9]: 0
Plant response rating, Foxtail, Giant [10, 19]: 0
Plant response rating, Foxtail, Giant [10, 20]: 10
Plant response rating, Galium [11, 19]: 0
Plant response rating, Galium [11, 20]: 80
Plant response rating, Kochia [12, 21]: 30
Kochia plant response rating [12]: 40
Plant response rating, Wheat [13, 19]: 0
Plant response rating, Wheat [13, 20]: 30
Plant response rating, Ragweed [14, 19]: 0
Plant response rating, Ragweed [14, 20]: 20
Plant response rating, Foxtail, Giant [15, 21]: 0
Foxtail, Giant plant response rating [15]: 10
Plant response rating, Ryegrass, Italian [16, 21]: 30
Ryegrass, Italian plant response rating [16]: 60
